Data from US20170316147A1, “METHODS AND SYSTEMS FOR IDENTIFYING LIGAND-PROTEIN BINDING SITES” (King Abdullah University of Science and Technology, priority 2014, published 2017).
Entries after “also recorded” stand apart in the source; their conditions may differ. No end group written: not given here.

What was measured:
Bcl-2 [1] = biological target: T1, Bcl-2 (Homo sapiens, UniProt P10415, A37T/A38E/A42E/A43T/DEL46-86/G36R/G41E/P39A/P44E/P88R/P90T/S87E/V35N/V89E); assay: Differential static light scattering (aggregation temperature) of Bcl-2; format: binding
T1 construct: made in house
Description: We also tested direct binding of CoA to recombinant Bcl-2 (see supporting information file PredTargets). Bcl-2, the founding member of the Bcl-2 family of regulator proteins that regulate cell death, is an important anti-apoptotic protein and is classified as an oncogene. Using differential static light scattering (DSLS) we observed that the aggregation temperature Tagg for 0.5 mg/ml apo-Bcl-2 was ˜57° C. […] The predicted CoA binding pocket by iDTP was adjacent to the Bax-BH binding site and without significant overlap (FIG. 5(b)). The presence of CoA was therefore not expected to displace bound Bax-BH3. […] Thus, our in vitro binding experiments strongly supported our computational binding predictions.
DSLS measured by the Stargazer system (Harbinger Biotechnology and Engineering Corporation, Markham, Canada) was used to assess the thermal stability of Bcl-2 in the absence or presence of CoA and control ligands. DSLS measures the specific aggregation temperature, Tagg at which a protein aggregates as a result of heat denaturing. Thus, DSLS provides the thermal stability of proteins, which is expected to vary in presence of ligands. Bcl-2 at 0.5 mg/mL was overlaid with mineral oil in a clear bottom 384-well black plate (Corning) were heated from 20 to 85° C. at 1° C./min and the light scattering was detected by a CCD camera every 0.5° C. in the absence or presence of varying concentrations of CoA, yielding the difference in aggregation temperature at a particular CoA concentration from apo Bc1-2 ΔTagg. Data were normalized and Kd values were calculated by plotting ΔTagg against the CoA concentration. Resulting data were fitted using a binding saturation single site model (GraphPad).
Differential static light scattering (DSLS). DSLS measured by the Stargazer system (Harbinger Biotechnology and Engineering Corporation, Markham, Canada) was used to assess the thermal stability of Bcl-2 in the presence or absence of CoA and to control ligands. DSLS measures the specific aggregation temperature, Tagg, at which a protein aggregates as a result of heat denaturing. Thus, DSLS provides proteins with thermal stability, which is expected to vary in the presence of ligands. Bcl-2 at 0.5 mg/mL was overlaid with mineral oil in a clear bottom 384-well black plate (Corning), and heated from 20 to 85° C. at 1° C./min; light scattering was detected by a CCD camera every 0.5° C. in the presence or absence of varying concentrations of CoA, yielding the difference in aggregation temperature at a particular CoA concentration from apo Bcl-2 ΔTagg. Data were normalized and Kd values were calculated by plotting ΔTagg against the CoA concentration. Resulting data were fitted using a binding-saturation single-site model (GraphPad).
Target sequence in this assay (P10415 with tags, fused parts or gaps with the stated changes): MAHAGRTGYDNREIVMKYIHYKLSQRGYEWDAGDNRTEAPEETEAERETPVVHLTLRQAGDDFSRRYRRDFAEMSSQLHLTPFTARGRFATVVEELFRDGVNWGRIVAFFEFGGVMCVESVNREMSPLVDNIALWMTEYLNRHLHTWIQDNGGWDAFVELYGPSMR

Bcl-2 [2] = biological target: T1, Bcl-2; assay: Intrinsic tryptophan fluorescence quenching binding assay
Description: Bcl-2 tryptophans were excited at 280 nM and the emission intensity was measured at 320 nM. 10 μM Bcl-2 was incubated with various dilutions of CoA for 10 min before measurement. The fluorescence emitted was monitored using a PheraStar fluorescence plate reader in 96-well plates. Change in tryptophan fluorescence occurs due to conformational change in the protein, when it is bound to the ligand and the difference in the fluorescence intensity was recorded and analyzed. Data were normalized, and Kd values were calculated by fitting to a Binding-Saturation single site model with GraphPad.
Intrinsic tryptophan fluorescence quenching binding assay. Bcl-2 tryptophans were excited at 280 nM and the emission intensity was measured at 320 nM. 10 μM Bcl-2 was incubated with various dilutions of CoA for 10 min before measurement. Emitted fluorescence was monitored using a PheraStar fluorescence plate reader in 96-well plates. Change in tryptophan fluorescence occurs due to conformational changes in the protein when it is bound to the ligand; differences in the fluorescence intensity were recorded and analyzed. Data were normalized and Kd values were calculated by fitting to a Binding-Saturation single-site model with GraphPad.
Target sequence in this assay (P10415 with tags, fused parts or gaps with the stated changes): as above

Bcl-2 [3] = biological target: T1, Bcl-2; assay: Fluorescence anisotropy competition: CoA against Bax-BH3 bound to Bcl-2; format: binding; details: 20 nM Bax-BH3, 400 nM Bcl-2, CoA up to 4.7 mM; listed as CoA
Source text: Fluorescence anisotropy measurements.
Target sequence in this assay (P10415 with tags, fused parts or gaps with the stated changes, one chain of several): as the sequence (P10415 with tags, fused parts or gaps with the stated changes) above

hPPARγ-LBD [4] = biological target: T2, hPPARγ-LBD (Homo sapiens, UniProt P37231); assay: Differential scanning fluorimetry (thermal shift) on hPPARγ-LBD; format: binding; design: human PPARγ (amino acids Glu196-Tyr477); made in house; details: for Tm of hPPARγ-LBD: 5 μM hPPARg
T2 sequence (P37231 196-477 isoform P37231-2): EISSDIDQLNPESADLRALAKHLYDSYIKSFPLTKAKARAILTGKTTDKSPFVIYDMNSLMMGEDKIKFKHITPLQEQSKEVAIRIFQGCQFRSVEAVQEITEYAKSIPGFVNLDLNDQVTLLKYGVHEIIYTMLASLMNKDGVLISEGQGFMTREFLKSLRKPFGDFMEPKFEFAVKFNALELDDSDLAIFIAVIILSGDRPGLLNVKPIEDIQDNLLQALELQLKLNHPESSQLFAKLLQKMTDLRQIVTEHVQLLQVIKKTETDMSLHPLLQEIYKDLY
Source text: PPARγ is a nuclear hormone receptor regulating numerous biological functions including adipogenesis and cell differentiation. Its dysregulation is involved in the onset of diabetes and obesity. The interaction of the ligand binding domain (LBD) of human PPARγ (hPPARγ-LBD) with CoA is one of our most promising predictions, because this interaction achieved a high iDTP score and statistically significant co-citation index (SI Table 3). The pocket predicted by iDTP to bind CoA overlaps with the known ligand binding site of this receptor.
(§1) This method measures the protein unfolding based on fluorescence detection of the denatured form of the protein [59]. […] The plates were sealed with an optical sealing tape (Bio-Rad) and heated in an Mx3005P Q-PCR system (Stratagene) from 25 to 95° C. at 1° C. intervals. Fluorescence changes in the wells were monitored with a photomultiplier tube. The wavelengths for excitation and emission were 545 nm and 568 nm, respectively. The melting temperatures, Tm, were obtained by fitting the fluorescence data with a Boltzmann model using the GraphPad Prism software.
as §1, with “Differential scanning fluorimetry (DSF or Thermofluor). This” for “This”, “measures” for “measures the”, “(Pantoliano et al., 2001).” for “[59].”, “25° C.” for “25”, “using” for “using the”

hPPARγ-LBD [5] = biological target: T2, hPPARγ-LBD; assay: Fluorescence anisotropy titrations of fluorescein-labelled coactivator/corepressor peptides with hPPARγ-LBD in presence of ligand
Source text: Next, we used fluorescence anisotropy (FA) to characterize the interaction between hPPARγ-LBD and its natural partner proteins upon CoA binding. We measured the dissociation constant (Kd) between hPPARγ-LBD and fluorescein-labeled peptides derived from a coactivator protein (PGC1) and two corepressor proteins (NCoR and SMRT). […] If an increasing molar excess of the ligand has an increasing influence on the Kd of the fluorescently labeled coactivator/corepressor, then we can infer ligand binding, because the ligand disturbs binding to coactivators or corepressors.
Binding affinities of the fluorescent peptides for hPPARγ LBD were measured in the presence or absence of ligands using a Safire2 microplate reader (TECAN). For the fluorescence-labeled peptides, excitation wavelength was set at 470 nm and emission measured at 530 nm. The reported data are the average of independent experiments and error bars correspond to standard deviations. The buffer solution for assays was 20 mM Tris-HCl pH 7.5, 150 mM NaCl, 1 mM EDTA, 5 mM dithiothreitol, and 10% (v/v) glycerol. The measurements were initiated at 40 μM of the protein, and then the sample was diluted successively by a factor of 2 with the buffer until the lowest protein concentration reached 9.7 nM. Fluorescent peptides were added to the protein samples at 4 nM, allowing establishment of the titration curve. Ligands, when added, were at final concentration of 80 μM.
Binding affinities of the fluorescent peptides for hPPARγ LBD were measured in the presence or absence of ligands using a Safire2 microplate reader (TECAN). Fluorescent-labeled peptides were measured using an excitation wavelength of 470 nm; emission was measured at 530 nm. Data are the average of independent experiments and error bars correspond to standard deviations. The buffer solution for assays consisted of 20 mM Tris-HCl pH 7.5, 150 mM NaCl, 1 mM EDTA, 5 mM dithiothreitol, and 10% (v/v) glycerol. Measurements began at 40 μM of the protein, followed by successive two-fold sample dilutions with buffer, until reaching the lowest protein concentration (9.7 nM). Fluorescent peptides were added to the protein samples at 4 nM to allow the establishment of the titration curve. Added ligands were at a final concentration of 80 μM.

[6] = biological target: T3, chimeric human Bcl-2 (with the internal loop 51-91 removed and residues 35-50 replaced by residues 33-48 of … (human; mouse, UniProt P10415 1-34; Q64373 33-48; P10415 92-207); assay: fluorescence anisotropy (FA), same experiment as FIG. 5(a), rounded
T3 construct: also called recombinant Bcl-2; Bc1-2
T3 sequence (P10415 other isoform, or with tags, fused parts or gaps mutant limits assumed): as the sequence (P10415 with tags, fused parts or gaps with the stated changes) above

[7] = biological target: T3, chimeric human Bcl-2 (with the internal …); assay: fluorescence anisotropy of labeled Bax-BH3 against Bcl-2 concentration, single binding site model
[8] = biological target: T3, chimeric human Bcl-2 (with the internal …); assay: DSLS, aggregation temperature of 0.5 mg/mL Bcl-2 with 400 nM peptide (apo Bcl-2 56.85 ± 0.14)
[9] = biological target: T3, chimeric human Bcl-2 (with the internal …); assay: differential static light scattering (DSLS), aggregation temperature of 0.5 mg/ml Bcl-2
[10] = biological target: T3, chimeric human Bcl-2 (with the internal …); assay: DSLS, aggregation temperature of 0.5 mg/mL Bcl-2 with 1 uM peptide (apo Bcl-2 56.85 ± 0.14); negative control

How did the “effect on Tagg of Bcl-2” value (Bcl-2 [1]; 0.5 mg/ml Bcl-2, 1 μM peptide (negative control)) turn out when “LSDAMETSSLRDALE [scrambled LD4 peptide, scrambled version of the Bcl-2 ligand LD4, negative control, reference compound]” was run?
Its value is “did not alter Tagg”.

Which results are given for “QDASTKKLSECLRRIGDELDSNMELQRMIAD [Bax-BH3 peptide, reference compound]”?
Tagg of Bcl-2 (Bcl-2 [1]; 0.5 mg/mL Bcl-2, 400 nM ligand): 67.30 ± 1.02 °C; Tagg of Bcl-2 (Bcl-2 [1]; 0.5 mg/mL Bcl-2, 400 nM ligand, listed as Bax-BH3): 67 °C

What does the source list for `CC(C)(COP(=O)(O)OP(=O)(O)OC[C@H]1O[C@@H](n2cnc3c(N)ncnc32)[C@H](O)[C@@H]1OP(=O)(O)O)[C@@H](O)C(=O)NCCC(=O)NCCS` [Coenzyme A]?
Tagg of Bcl-2 (Bcl-2 [1]; 0.5 mg/mL Bcl-2, 0.1 mM ligand): 57.65 ± 0.19 °C; Tagg of Bcl-2 (Bcl-2 [1]; 0.5 mg/mL Bcl-2, 0.25 mM ligand): 59.72 ± 1.011 °C; Tagg of Bcl-2 (Bcl-2 [1]; 0.5 mg/mL Bcl-2, 0.5 mM ligand): 59.83 ± 0.21 °C; Tagg of Bcl-2 (Bcl-2 [1]; 0.5 mg/mL Bcl-2, 0.75 mM ligand): 60.49 ± 0.46 °C; Tagg of Bcl-2 (Bcl-2 [1]; 0.5 mg/mL Bcl-2, 1 mM ligand): 60.88 ± 0.46 °C; Tagg of Bcl-2 (Bcl-2 [1]; 0.5 mg/mL Bcl-2, 1.5 mM ligand): 61.12 ± 0.58 °C; Tagg of Bcl-2 (Bcl-2 [1]; 0.5 mg/mL Bcl-2, 2 mM ligand): 61.25 ± 0.66 °C; Tagg of Bcl-2 (Bcl-2 [1]; 0.5 mg/mL Bcl-2, 3 mM ligand): 61.78 ± 0.45 °C; Tagg of Bcl-2 reached with increasing ligand concentrations (Bcl-2 [1]; 0.5 mg/ml Bcl-2, increasing concentrations of CoA): up to 62 °C; Kd (Bcl-2 [1]; DSLS thermal stability of Bcl-2, read-out: Kd from ΔTagg versus concentration, single binding site model): 320 ± 130 µM; Kd (Bcl-2 [2]; 10 μM Bcl-2, increasing CoA concentrations, read-out: Kd from tryptophan fluorescence quenching, single binding site model): 380 µM; Kd (Bcl-2 [2]; summary value in discussion, read-out: Kd for recombinant Bcl-2 in vitro): ~350 µM; displacement of Bax-BH3 from Bcl-2 (fluorescence anisotropy/polarization) (Bcl-2 [3]): did not reduce the FA; also recorded: without displacing Bax-BH3; also recorded: unable to displace; Tm of hPPARγ-LBD (hPPARγ-LBD [4]; 35 μM ligand): 46.6 °C; Tm of hPPARγ-LBD (hPPARγ-LBD [4]; 70 μM ligand): 46.5 °C; Tm of hPPARγ-LBD (hPPARγ-LBD [4]; 140 μM ligand): 45.5 °C; Tm of hPPARγ-LBD (hPPARγ-LBD [4]; 280 μM ligand): 41.7 °C; Tm of hPPARγ-LBD (hPPARγ-LBD [4]; 1400 μM ligand): 27.5 °C; lowering of hPPARγ-LBD Tm compared to the apo-protein (hPPARγ-LBD [4]; seven molar excess of ligand): 0.8 °C; Kd (hPPARγ-LBD [5]): < 500 µM; nature of the ligand-hPPARγ-LBD interaction (hPPARγ-LBD [5]; inferred from effect on coactivator and corepressor binding): neutral antagonist; effect on affinity of hPPARγ-LBD for corepressors NCoR and SMRT (hPPARγ-LBD [5]; two to ten molar excess): lowered the affinity; effect on affinity of hPPARγ-LBD for the coactivator PGC1 (hPPARγ-LBD [5]; two to ten molar excess (CD5577: two molar excess)): lowered the affinity

B1: fluorescence-labeled peptide QDASTKKLSECLRRIGDELDSNMELQRMIAD corresponding to Bax-BH3 (peptide)
peptide: QDASTKKLSECLRRIGDELDSNMELQRMIAD
modifications: also: fluorescein label, position not given here
notes: Bought from Genscript; also called Bax-BH3 peptide
Which Kd [6] does the source give for B1 here?
The Kd was 128 nM.

What about the Kd [7] of the same molecule?
The Kd was ~128 nM.

And the “Tagg (° C.)” value [8]?
Its value is 67.3 ° C.

B2: scrambled LD4 peptide (LSDAMETSSLRDALE, a scrambled version of the Bcl-2 ligand LD4) (peptide)
peptide: LSDAMETSSLRDALE
notes: Negative control peptide, bought from Genscript; also called Scramble LD4 peptide
Does B2 bind [9]?
Result: no binding (tested: 1 µM)

What about the “Tagg (° C.)” value [10] of the same molecule?
The value was 57 ° C.
